The values that follow come from patent publication US10898481B2 (priority 2018, dated 2021).

In assay [1] the target is mA2a/CHO (Mus musculus (Mouse), UniProt Q60613). Kind of assay: cAMP inhibition assay in mA2a/CHO cells, 10 μM adenosine.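 Note: compounds preincubated 30 min at 37 °C before the adenosine challenge, then 30 min further stimulation, readout after 60 min detection reagent incubation at room temperature in 384-well plates.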 Type of assay: cell-based.
Experimental: (§1) hA2a/CHO, hA2b/CHO, hA3/CHO and mA2a/CHO (Genscript) were plated at 5×10^3 cells/well into 384-well polystyrene plates at the day of experiment. Compounds were pre-incubated with cells for 30 min at 37° C., 5% CO2. Then 10 μM adenosine was added to the cells and incubated for 30 min at 37° C., 5% CO2. Detection reagent (CISBIO) was added and the plates were incubated for 60 min at room temperature. The signal was captured by Envision.
Assay [2] has as its target hA2a/CHO (Homo sapiens (Human), UniProt P29274). Kind of assay: cAMP inhibition assay in hA2a/CHO cells, 10 μM adenosine.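 Note: compounds added to cells 30 min ahead of adenosine, then a further 30 min at 37 °C with adenosine before cAMP detection.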 The class given is cell-based.
Experimental: as §1
Assay [3] addresses hADORA1/CHO (hA1 expressing) cells (Homo sapiens (Human), UniProt P30542). Kind of assay: cell-based. Conditions: 10 μM adenosine.
Assay [4] deals with hA2b/CHO (Homo sapiens (Human), UniProt P29275). Kind of assay: cAMP inhibition assay in hA2b/CHO cells, 10 μM adenosine.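 Note: cells exposed to compound 30 min at 37 °C, then stimulated with adenosine a further 30 min, cAMP read after 60 min at room temperature.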 Type of assay: cell-based.
Experimental: as §1
Where [5] appears, read: read-out: cAMP & FLIPR IC50 (nM) mA2a.
Setting [6] is: read-out: cAMP & FLIPR IC50 (nM) hA2a.
Setting [7] is: FLIPR inhibition, read-out: cAMP & FLIPR IC50 (nM) hA1.
Where [8] appears, read: read-out: cAMP & FLIPR IC50 (nM) hA2b.

Like-named read-outs stand apart in the source and are kept apart here.

hA2b/CHO, sequence (P29275 whole entry): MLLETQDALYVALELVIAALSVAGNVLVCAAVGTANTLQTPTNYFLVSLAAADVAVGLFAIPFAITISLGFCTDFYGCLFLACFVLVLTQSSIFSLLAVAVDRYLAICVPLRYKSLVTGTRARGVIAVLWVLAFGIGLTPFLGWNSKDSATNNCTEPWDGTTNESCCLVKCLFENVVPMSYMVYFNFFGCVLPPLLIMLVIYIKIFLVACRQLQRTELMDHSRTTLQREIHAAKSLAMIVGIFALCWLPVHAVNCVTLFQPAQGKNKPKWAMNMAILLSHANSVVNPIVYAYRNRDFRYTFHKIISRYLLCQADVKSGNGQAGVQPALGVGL
mA2a/CHO, sequence (Q60613 whole entry): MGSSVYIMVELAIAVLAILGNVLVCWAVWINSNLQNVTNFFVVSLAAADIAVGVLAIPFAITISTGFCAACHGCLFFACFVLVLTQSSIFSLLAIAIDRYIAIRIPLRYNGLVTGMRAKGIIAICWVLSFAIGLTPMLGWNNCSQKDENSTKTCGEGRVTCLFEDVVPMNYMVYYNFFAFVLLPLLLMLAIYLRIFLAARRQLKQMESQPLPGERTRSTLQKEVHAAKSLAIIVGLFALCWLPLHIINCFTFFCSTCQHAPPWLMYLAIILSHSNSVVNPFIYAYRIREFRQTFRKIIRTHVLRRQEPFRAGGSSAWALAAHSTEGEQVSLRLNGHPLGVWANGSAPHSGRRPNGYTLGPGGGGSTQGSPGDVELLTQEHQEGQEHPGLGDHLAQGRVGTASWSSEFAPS
hA2a/CHO, sequence (P29274 whole entry): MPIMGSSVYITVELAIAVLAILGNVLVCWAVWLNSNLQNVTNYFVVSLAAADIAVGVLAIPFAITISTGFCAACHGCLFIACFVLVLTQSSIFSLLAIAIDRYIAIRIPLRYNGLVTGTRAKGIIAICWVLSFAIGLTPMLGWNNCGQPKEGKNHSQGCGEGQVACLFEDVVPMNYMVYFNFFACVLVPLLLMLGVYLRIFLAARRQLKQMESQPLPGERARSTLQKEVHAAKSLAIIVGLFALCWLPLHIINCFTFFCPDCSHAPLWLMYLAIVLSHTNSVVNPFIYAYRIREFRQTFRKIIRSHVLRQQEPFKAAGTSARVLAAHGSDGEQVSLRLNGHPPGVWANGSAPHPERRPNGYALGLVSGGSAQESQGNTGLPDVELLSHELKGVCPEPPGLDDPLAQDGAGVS
hADORA1/CHO (hA1 expressing) cells, sequence (P30542 whole entry): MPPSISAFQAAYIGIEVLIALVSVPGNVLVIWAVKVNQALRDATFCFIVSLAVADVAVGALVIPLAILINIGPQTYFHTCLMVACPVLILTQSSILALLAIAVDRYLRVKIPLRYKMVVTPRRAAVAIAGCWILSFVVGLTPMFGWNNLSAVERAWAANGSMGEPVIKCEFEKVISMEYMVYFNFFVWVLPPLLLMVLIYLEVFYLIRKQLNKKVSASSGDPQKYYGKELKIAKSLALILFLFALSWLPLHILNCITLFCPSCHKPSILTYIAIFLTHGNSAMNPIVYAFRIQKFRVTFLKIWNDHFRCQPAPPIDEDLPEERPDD

`Cn1cc(-c2nc(C(=O)NCc3ncccc3CO)c(N)nc2-c2ncco2)ccc1=O` [Example 36, 3-amino-N-((3-(hydroxymethyl)pyridin-2-yl)methyl)-6-(1-methyl-6-oxo-1,6-dihydropyridin-3-yl)-5-(oxazol-2-yl)pyrazine-2-carboxamide]: the 50% inhibitory concentration (IC50) (in general, the concentration at which inhibition is half-maximal) in assay [1] (setting [5]) amounted to 419 nM; in assay [2] (setting [6]), 180 nM; in assay [3] (setting [7]), 3010 nM; in assay [4] (setting [8]), 2530 nM.

Consider `Nc1nc(-c2ncco2)c(-c2ccc(=O)n(C3CC3)c2)nc1C(=O)NCc1c(F)cccc1F` [Example 38, 3-amino-6-(1-cyclopropyl-6-oxo-1,6-dihydropyridin-3-yl)-N-[(2,6-difluorophenyl)methyl]-5-(1,3-oxazol-2-yl)pyrazine-2-carboxamide], for which the half-inhibitory concentration (IC50) in assay [1] (setting [5]) was determined as 5.3 nM; in assay [2] (setting [6]) it was 2.4 nM; in assay [3] (setting [7]), 61 nM; in assay [4] (setting [8]) it was 59 nM.

Turning to `Cn1cc(-c2nc(C(=O)NCc3c(F)cccc3N3CCOCC3)c(N)nc2-c2ncco2)ccc1=O` [Example 39, 3-amino-N-[[2-fluoro-6-(morpholin-4-yl)phenyl]methyl]-6-(1-methyl-6-oxo-1,6-dihydropyridin-3-yl)-5-(1,3-oxazol-2-yl)pyrazine-2-carboxamide], the IC50 in assay [1] (setting [5]) was determined as 3.3 nM; in assay [2] (setting [6]) it was 7.8 nM; in assay [3] (setting [7]) it was 32 nM; in assay [4] (setting [8]), 2120 nM.

For `Nc1nc(-c2ncco2)c(-c2ccc(=O)n(C3COC3)c2)nc1C(=O)NCc1c(F)cccc1F` [Example 42, 3-amino-N-[(2,6-difluorophenyl)methyl]-5-(1,3-oxazol-2-yl)-6-[1-(oxetan-3-yl)-6-oxo-1,6-dihydropyridin-3-yl]pyrazine-2-carboxamide], the IC50 in assay [1] (setting [5]) came out at 16 nM; in assay [2] (setting [6]), 14 nM; in assay [3] (setting [7]), 51 nM; in assay [4] (setting [8]) it was 102 nM.

With `Cc1nc(CNC(=O)c2nc(-c3ccc4nccn4c3)c(-c3ncco3)nc2N)cs1` [Example 44, 3-amino-6-(imidazo[1,2-a]pyridin-6-yl)-N-((2-methylthiazol-4-yl)methyl)-5-(oxazol-2-yl)pyrazine-2-carboxamide], the IC50 stood at 786 nM in assay [1] (setting [5]), 131 nM in assay [2] (setting [6]), 10000 nM in assay [3] (setting [7]) and 2110 nM in assay [4] (setting [8]).

Regarding `Nc1nc(-c2ncco2)c(-c2ccc3nccn3c2)nc1C(=O)NCc1cscn1` [Example 45, 3-amino-6-[imidazo[1,2-a]pyridin-6-yl]-5-(1,3-oxazol-2-yl)-N-[(1,3-thiazol-4-yl)methyl]pyrazine-2-carboxamide], the IC50 in assay [1] (setting [5]) was 566 nM; in assay [2] (setting [6]) it was 94 nM; in assay [3] (setting [7]), 10000 nM; in assay [4] (setting [8]), 912 nM.

`CNc1cccnc1CNC(=O)c1nc(-c2ccc(=O)n(C)c2)c(-c2ncco2)nc1N` [Example 46, 3-amino-6-(1-methyl-6-oxo-1,6-dihydropyridin-3-yl)-N-((3-(methylamino)pyridin-2-yl)methyl)-5-(oxazol-2-yl)pyrazine-2-carboxamide]: the IC50 in assay [1] (setting [5]) is 125 nM; in assay [2] (setting [6]), 102 nM; in assay [3] (setting [7]) it was 488 nM; in assay [4] (setting [8]), 1620 nM.

For the compound `CNc1ccc(F)c(CNC(=O)c2nc(-c3ccc(=O)n(C)c3)c(-c3ncco3)nc2N)n1` [Example 50, 3-amino-N-[[3-fluoro-6-(methylamino)pyridin-2-yl]methyl]-6-(1-methyl-6-oxo-1,6-dihydropyridin-3-yl)-5-(1,3-oxazol-2-yl)pyrazine-2-carboxamide], the IC50 was determined as 85 nM in assay [1] (setting [5]), 33 nM in assay [2] (setting [6]), 90 nM in assay [3] (setting [7]) and 249 nM in assay [4] (setting [8]).

For `COc1cc(F)ccc1CNC(=O)c1nc(-c2cc(C)nc(C)c2)c(-c2ccc(F)cc2)nc1N` [Example 52, 3-amino-6-(2,6-dimethylpyridin-4-yl)-N-(4-fluoro-2-methoxybenzyl)-5-(4-fluorophenyl)pyrazine-2-carboxamide], the IC50 in assay [1] (setting [5]) is 5960 nM; in assay [2] (setting [6]), 89 nM; in assay [3] (setting [7]), 2630 nM; in assay [4] (setting [8]), ≥ 10000 nM.

On to `COc1c(F)cccc1CNC(=O)c1nc(-c2cc(C)nc(C)c2)c(-c2ccc(F)cc2)nc1N` [Example 54, 3-amino-6-(2,6-dimethylpyridin-4-yl)-N-(3-fluoro-2-methoxybenzyl)-5-(4-fluorophenyl)pyrazine-2-carboxamide], for which the half-inhibitory concentration (IC50) is 2080 nM in assay [1] (setting [5]), 117 nM in assay [2] (setting [6]), 1590 nM in assay [3] (setting [7]) and ≥ 10000 nM in assay [4] (setting [8]).

As to `Cc1cc(-c2nc(C(=O)NCc3ccccc3C(F)F)c(N)nc2-c2ccc(F)cc2)cc(C)n1` [Example 55, 3-amino-N-(2-(difluoromethyl)benzyl)-6-(2,6-dimethylpyridin-4-yl)-5-(4-fluorophenyl)pyrazine-2-carboxamide], the IC50 in assay [1] (setting [5]) was 1590 nM; in assay [2] (setting [6]) it was 133 nM; in assay [3] (setting [7]) it was 413 nM; in assay [4] (setting [8]), 4440 nM.

For the compound `COc1ccccc1CNC(=O)c1nc(-c2cc(C)nc(C)c2)c(-n2cccn2)nc1N` [Example 56, 3-amino-6-(2,6-dimethylpyridin-4-yl)-N-(2-methoxybenzyl)-5-(1H-pyrazol-1-yl)pyrazine-2-carboxamide], the IC50 in assay [1] (setting [5]) is 623 nM; in assay [2] (setting [6]), 28 nM; in assay [3] (setting [7]), 940 nM; in assay [4] (setting [8]), ≥ 10000 nM.

On to `Cc1cc(-c2nc(C(=O)NCc3ncccc3OC(F)F)c(N)nc2-c2ccc(F)cc2)cc(C)n1` [Example 57, 3-amino-N-((3-(difluoromethoxy)pyridin-2-yl)methyl)-6-(2,6-dimethylpyridin-4-yl)-5-(4-fluorophenyl)pyrazine-2-carboxamide], for which the IC50 in assay [1] (cAMP & FLIPR IC50 (nM) mA2a) was determined as 278 nM; in assay [2] (cAMP & FLIPR IC50 (nM) hA2a), 41 nM; in assay [3] (cAMP & FLIPR IC50 (nM) hA1, FLIPR inhibition), 142 nM; in assay [4] (cAMP & FLIPR IC50 (nM) hA2b), 1680 nM.

As for `Cn1cc(-c2nc(C(=O)NCc3ncccc3OC(F)F)c(N)nc2-c2ccc(F)cc2)ccc1=O` [Example 58, 3-amino-N-((3-(difluoromethoxy)pyridin-2-yl)methyl)-5-(4-fluorophenyl)-6-(1-methyl-6-oxo-1,6-dihydropyridin-3-yl)pyrazine-2-carboxamide], the IC50 in assay [1] (setting [5]) is 81 nM; in assay [2] (setting [6]), 19 nM; in assay [3] (setting [7]), 18 nM; in assay [4] (setting [8]), 62 nM.

With `COc1cccnc1CNC(=O)c1nc(-c2cc(C)nc(C)c2)c(-c2ccc(F)cc2)nc1N` [Example 71, 3-amino-6-(2,6-dimethylpyridin-4-yl)-5-(4-fluorophenyl)-N-((3-methoxypyridin-2-yl)methyl)pyrazine-2-carboxamide], the IC50 was determined as 1250 nM in assay [1] (setting [5]), 64 nM in assay [2] (setting [6]), 388 nM in assay [3] (setting [7]) and 1940 nM in assay [4] (setting [8]).

`Cn1cc(-c2nc(C(=O)NCc3ccccc3OC(F)F)c(N)nc2-c2ccc(F)cc2)ccc1=O` [Example 72, 3-amino-N-(2-(difluoromethoxy)benzyl)-5-(4-fluorophenyl)-6-(1-methyl-6-oxo-1,6-dihydropyridin-3-yl)pyrazine-2-carboxamide]: the concentration for half-maximal inhibition (IC50) in assay [1] (setting [5]) came to 8.1 nM; in assay [2] (setting [6]), 1.3 nM; in assay [3] (setting [7]) it was 14 nM; in assay [4] (setting [8]) it was 23 nM.

In the case of `Cn1cc(-c2nc(C(=O)NCc3c(F)cccc3OC(F)F)c(N)nc2-c2ccc(F)cc2)ccc1=O` [Example 73, 3-amino-N-(2-(difluoromethoxy)-6-fluorobenzyl)-5-(4-fluorophenyl)-6-(1-methyl-6-oxo-1,6-dihydropyridin-3-yl) pyrazine-2-carboxamide], the half-maximal inhibitory concentration (IC50) in assay [1] (setting [5]) is 4.2 nM; in assay [2] (setting [6]) it was 0.4 nM; in assay [3] (setting [7]), 20 nM; in assay [4] (setting [8]), 8.1 nM.

For `COc1ccccc1CNC(=O)c1nc(-c2cc(C)nc(C)c2)c(-n2nccc2C)nc1N` [Example 74, 3-amino-6-(2,6-dimethylpyridin-4-yl)-N-(2-methoxybenzyl)-5-(5-methyl-1H-pyrazol-1-yl)pyrazine-2-carboxamide], the IC50 in assay [1] (setting [5]) is 1950 nM; in assay [2] (setting [6]), 44 nM; in assay [3] (setting [7]), 216 nM; in assay [4] (setting [8]), ≥ 10000 nM.

Take `COc1ccccc1CNC(=O)c1nc(-c2cc(C)nc(C)c2)c(-n2ccc(C)n2)nc1N` [Example 75, 3-amino-6-(2,6-dimethylpyridin-4-yl)-N-(2-methoxybenzyl)-5-(3-methyl-1H-pyrazol-1-yl)pyrazine-2-carboxamide]: the IC50 is 157 nM in assay [1] (setting [5]), 6.1 nM in assay [2] (setting [6]), 44 nM in assay [3] (setting [7]) and ≥ 10000 nM in assay [4] (setting [8]).

Take `COc1ccccc1CNC(=O)c1nc(-c2ccc(=O)n(C(F)F)c2)c(-c2ccc(F)cc2)nc1N` [Example 76, 3-amino-6-(1-(difluoromethyl)-6-oxo-1,6-dihydropyridin-3-yl)-5-(4-fluorophenyl)-N-(2-methoxybenzyl) pyrazine-2-carboxamide]: the IC50 in assay [1] (setting [5]) was found to be 22 nM; in assay [2] (setting [6]), 4.2 nM; in assay [3] (setting [7]), 68 nM; in assay [4] (setting [8]) it was 76 nM.

Consider `Cc1cc(-c2nc(C(=O)NCc3ccccc3F)c(N)nc2-c2ccc(F)cc2)cc(C)n1` [Example 78, 3-amino-6-(2,6-dimethylpyridin-4-yl)-N-(2-fluorobenzyl)-5-(4-fluorophenyl)pyrazine-2-carboxamide], for which the IC50 is 934 nM in assay [1] (setting [5]), 44 nM in assay [2] (setting [6]), 2730 nM in assay [3] (setting [7]) and ≥ 10000 nM in assay [4] (setting [8]).
